# From the NIST ThermoML archive (doi:10.1021/je900672g)
# ± gives the expanded uncertainty stated by the source.
# Test: isobaric coefficient of expansion
# Details: 278.15 K; 5000 kPa; Liquid; DSC
row,Compound,isobaric coefficient of expansion
1,CCC[N+](=O)[O-] [1-nitropropane],0.00105 ± 2.6e-05 1/K
2,N#Cc1ccccc1 [benzonitrile],0.000841 ± 2.1e-05 1/K
3,CC[N+](=O)[O-] [nitroethane],0.00113 ± 2.8e-05 1/K
4,C[N+](=O)[O-] [nitromethane],0.00116 ± 2.8e-05 1/K
5,CCC#N [propanenitrile],0.00122 ± 3e-05 1/K

# Same assay, conditions: 278.15 K; 10000 kPa; Liquid; DSC
row,Compound,isobaric coefficient of expansion
1,CCC[N+](=O)[O-] [1-nitropropane],0.00103 ± 2.5e-05 1/K
2,N#Cc1ccccc1 [benzonitrile],0.000831 ± 2e-05 1/K
3,CC[N+](=O)[O-] [nitroethane],0.0011 ± 2.7e-05 1/K
4,C[N+](=O)[O-] [nitromethane],0.00114 ± 2.8e-05 1/K
5,CCC#N [propanenitrile],0.0012 ± 2.9e-05 1/K

# Same assay, conditions: 278.15 K; 15000 kPa; Liquid; DSC
row,Compound,isobaric coefficient of expansion
1,CCC[N+](=O)[O-] [1-nitropropane],0.00101 ± 2.5e-05 1/K
2,N#Cc1ccccc1 [benzonitrile],0.000829 ± 2e-05 1/K
3,CC[N+](=O)[O-] [nitroethane],0.00109 ± 2.7e-05 1/K
4,C[N+](=O)[O-] [nitromethane],0.00113 ± 2.8e-05 1/K
5,CCC#N [propanenitrile],0.00117 ± 2.9e-05 1/K

# Same assay, conditions: 278.15 K; 20000 kPa; Liquid; DSC
row,Compound,isobaric coefficient of expansion
1,CCC[N+](=O)[O-] [1-nitropropane],0.000982 ± 2.4e-05 1/K
2,N#Cc1ccccc1 [benzonitrile],0.000812 ± 2e-05 1/K
3,CC[N+](=O)[O-] [nitroethane],0.00106 ± 2.6e-05 1/K
4,C[N+](=O)[O-] [nitromethane],0.0011 ± 2.7e-05 1/K
5,CCC#N [propanenitrile],0.00114 ± 2.8e-05 1/K

# Same assay, conditions: 278.15 K; 25000 kPa; Liquid; DSC
row,Compound,isobaric coefficient of expansion
1,CCC[N+](=O)[O-] [1-nitropropane],0.000966 ± 2.4e-05 1/K
2,N#Cc1ccccc1 [benzonitrile],0.000795 ± 1.9e-05 1/K
3,CC[N+](=O)[O-] [nitroethane],0.00104 ± 2.5e-05 1/K
4,C[N+](=O)[O-] [nitromethane],0.00108 ± 2.6e-05 1/K
5,CCC#N [propanenitrile],0.00111 ± 2.7e-05 1/K

# Same assay, conditions: 278.15 K; 30000 kPa; Liquid; DSC
row,Compound,isobaric coefficient of expansion
1,CCC[N+](=O)[O-] [1-nitropropane],0.000943 ± 2.3e-05 1/K
2,N#Cc1ccccc1 [benzonitrile],0.000791 ± 1.9e-05 1/K
3,CC[N+](=O)[O-] [nitroethane],0.00102 ± 2.5e-05 1/K
4,C[N+](=O)[O-] [nitromethane],0.00106 ± 2.6e-05 1/K
5,CCC#N [propanenitrile],0.00109 ± 2.7e-05 1/K

# Same assay, conditions: 278.15 K; 35000 kPa; Liquid; DSC
row,Compound,isobaric coefficient of expansion
1,CCC[N+](=O)[O-] [1-nitropropane],0.000933 ± 2.3e-05 1/K
2,N#Cc1ccccc1 [benzonitrile],0.00078 ± 1.9e-05 1/K
3,CC[N+](=O)[O-] [nitroethane],0.00101 ± 2.5e-05 1/K
4,C[N+](=O)[O-] [nitromethane],0.00105 ± 2.6e-05 1/K
5,CCC#N [propanenitrile],0.00107 ± 2.6e-05 1/K

# Same assay, conditions: 278.15 K; 40000 kPa; Liquid; DSC
row,Compound,isobaric coefficient of expansion
1,CCC[N+](=O)[O-] [1-nitropropane],0.000913 ± 2.2e-05 1/K
2,N#Cc1ccccc1 [benzonitrile],0.000772 ± 1.9e-05 1/K
3,CC[N+](=O)[O-] [nitroethane],0.000984 ± 2.4e-05 1/K
4,C[N+](=O)[O-] [nitromethane],0.00103 ± 2.5e-05 1/K
5,CCC#N [propanenitrile],0.00104 ± 2.6e-05 1/K

# Same assay, conditions: 278.15 K; 45000 kPa; Liquid; DSC
row,Compound,isobaric coefficient of expansion
1,CCC[N+](=O)[O-] [1-nitropropane],0.000902 ± 2.2e-05 1/K
2,N#Cc1ccccc1 [benzonitrile],0.00076 ± 1.9e-05 1/K
3,CC[N+](=O)[O-] [nitroethane],0.000973 ± 2.4e-05 1/K
4,C[N+](=O)[O-] [nitromethane],0.00102 ± 2.5e-05 1/K
5,CCC#N [propanenitrile],0.00102 ± 2.5e-05 1/K

# Same assay, conditions: 278.15 K; 50000 kPa; Liquid; DSC
row,Compound,isobaric coefficient of expansion
1,CCC[N+](=O)[O-] [1-nitropropane],0.000885 ± 2.2e-05 1/K
2,N#Cc1ccccc1 [benzonitrile],0.000752 ± 1.8e-05 1/K
3,CC[N+](=O)[O-] [nitroethane],0.000958 ± 2.3e-05 1/K
4,C[N+](=O)[O-] [nitromethane],0.001 ± 2.5e-05 1/K
5,CCC#N [propanenitrile],0.001 ± 2.5e-05 1/K

# Same assay, conditions: 278.15 K; 55000 kPa; Liquid; DSC
row,Compound,isobaric coefficient of expansion
1,CCC[N+](=O)[O-] [1-nitropropane],0.000871 ± 2.1e-05 1/K
2,CC[N+](=O)[O-] [nitroethane],0.00094 ± 2.3e-05 1/K
3,C[N+](=O)[O-] [nitromethane],0.000986 ± 2.4e-05 1/K
4,CCC#N [propanenitrile],0.000991 ± 2.4e-05 1/K

# Same assay, conditions: 288.15 K; 5000 kPa; Liquid; DSC
row,Compound,isobaric coefficient of expansion
1,CCC[N+](=O)[O-] [1-nitropropane],0.00106 ± 2.6e-05 1/K
2,N#Cc1ccccc1 [benzonitrile],0.000845 ± 2.1e-05 1/K
3,O=[N+]([O-])c1ccccc1 [nitrobenzene],0.000818 ± 2e-05 1/K
4,CC[N+](=O)[O-] [nitroethane],0.00114 ± 2.8e-05 1/K
5,C[N+](=O)[O-] [nitromethane],0.00118 ± 2.9e-05 1/K
6,CCC#N [propanenitrile],0.00125 ± 3.1e-05 1/K

# Same assay, conditions: 288.15 K; 10000 kPa; Liquid; DSC
row,Compound,isobaric coefficient of expansion
1,CCC[N+](=O)[O-] [1-nitropropane],0.00104 ± 2.5e-05 1/K
2,N#Cc1ccccc1 [benzonitrile],0.000832 ± 2e-05 1/K
3,O=[N+]([O-])c1ccccc1 [nitrobenzene],0.000813 ± 2e-05 1/K
4,CC[N+](=O)[O-] [nitroethane],0.00111 ± 2.7e-05 1/K
5,C[N+](=O)[O-] [nitromethane],0.00116 ± 2.8e-05 1/K
6,CCC#N [propanenitrile],0.00121 ± 3e-05 1/K

# Same assay, conditions: 288.15 K; 15000 kPa; Liquid; DSC
row,Compound,isobaric coefficient of expansion
1,CCC[N+](=O)[O-] [1-nitropropane],0.00101 ± 2.5e-05 1/K
2,N#Cc1ccccc1 [benzonitrile],0.000819 ± 2e-05 1/K
3,O=[N+]([O-])c1ccccc1 [nitrobenzene],0.000797 ± 2e-05 1/K
4,CC[N+](=O)[O-] [nitroethane],0.00109 ± 2.7e-05 1/K
5,C[N+](=O)[O-] [nitromethane],0.00114 ± 2.8e-05 1/K
6,CCC#N [propanenitrile],0.00118 ± 2.9e-05 1/K

# Same assay, conditions: 288.15 K; 20000 kPa; Liquid; DSC
row,Compound,isobaric coefficient of expansion
1,CCC[N+](=O)[O-] [1-nitropropane],0.000991 ± 2.4e-05 1/K
2,N#Cc1ccccc1 [benzonitrile],0.000811 ± 2e-05 1/K
3,O=[N+]([O-])c1ccccc1 [nitrobenzene],0.000785 ± 1.9e-05 1/K
4,CC[N+](=O)[O-] [nitroethane],0.00107 ± 2.6e-05 1/K
5,C[N+](=O)[O-] [nitromethane],0.00112 ± 2.7e-05 1/K
6,CCC#N [propanenitrile],0.00115 ± 2.8e-05 1/K

# Same assay, conditions: 288.15 K; 25000 kPa; Liquid; DSC
row,Compound,isobaric coefficient of expansion
1,CCC[N+](=O)[O-] [1-nitropropane],0.000972 ± 2.4e-05 1/K
2,N#Cc1ccccc1 [benzonitrile],0.000799 ± 2e-05 1/K
3,O=[N+]([O-])c1ccccc1 [nitrobenzene],0.000775 ± 1.9e-05 1/K
4,CC[N+](=O)[O-] [nitroethane],0.00105 ± 2.6e-05 1/K
5,C[N+](=O)[O-] [nitromethane],0.0011 ± 2.7e-05 1/K
6,CCC#N [propanenitrile],0.00112 ± 2.8e-05 1/K

# Same assay, conditions: 288.15 K; 30000 kPa; Liquid; DSC
row,Compound,isobaric coefficient of expansion
1,CCC[N+](=O)[O-] [1-nitropropane],0.000954 ± 2.3e-05 1/K
2,N#Cc1ccccc1 [benzonitrile],0.000789 ± 1.9e-05 1/K
3,O=[N+]([O-])c1ccccc1 [nitrobenzene],0.000762 ± 1.9e-05 1/K
4,CC[N+](=O)[O-] [nitroethane],0.00103 ± 2.5e-05 1/K
5,C[N+](=O)[O-] [nitromethane],0.00108 ± 2.6e-05 1/K
6,CCC#N [propanenitrile],0.0011 ± 2.7e-05 1/K

# Same assay, conditions: 288.15 K; 35000 kPa; Liquid; DSC
row,Compound,isobaric coefficient of expansion
1,CCC[N+](=O)[O-] [1-nitropropane],0.000932 ± 2.3e-05 1/K
2,N#Cc1ccccc1 [benzonitrile],0.000772 ± 1.9e-05 1/K
3,O=[N+]([O-])c1ccccc1 [nitrobenzene],0.000749 ± 1.8e-05 1/K
4,CC[N+](=O)[O-] [nitroethane],0.00101 ± 2.5e-05 1/K
5,C[N+](=O)[O-] [nitromethane],0.00106 ± 2.6e-05 1/K
6,CCC#N [propanenitrile],0.00107 ± 2.6e-05 1/K

# Same assay, conditions: 288.15 K; 40000 kPa; Liquid; DSC
row,Compound,isobaric coefficient of expansion
1,CCC[N+](=O)[O-] [1-nitropropane],0.000916 ± 2.2e-05 1/K
2,N#Cc1ccccc1 [benzonitrile],0.000771 ± 1.9e-05 1/K
3,O=[N+]([O-])c1ccccc1 [nitrobenzene],0.00074 ± 1.8e-05 1/K
4,CC[N+](=O)[O-] [nitroethane],0.000987 ± 2.4e-05 1/K
5,C[N+](=O)[O-] [nitromethane],0.00104 ± 2.6e-05 1/K
6,CCC#N [propanenitrile],0.00105 ± 2.6e-05 1/K

# Same assay, conditions: 288.15 K; 45000 kPa; Liquid; DSC
row,Compound,isobaric coefficient of expansion
1,CCC[N+](=O)[O-] [1-nitropropane],0.000902 ± 2.2e-05 1/K
2,N#Cc1ccccc1 [benzonitrile],0.000759 ± 1.9e-05 1/K
3,O=[N+]([O-])c1ccccc1 [nitrobenzene],0.000729 ± 1.8e-05 1/K
4,CC[N+](=O)[O-] [nitroethane],0.000972 ± 2.4e-05 1/K
5,C[N+](=O)[O-] [nitromethane],0.00102 ± 2.5e-05 1/K
6,CCC#N [propanenitrile],0.00103 ± 2.5e-05 1/K

# Same assay, conditions: 288.15 K; 50000 kPa; Liquid; DSC
row,Compound,isobaric coefficient of expansion
1,CCC[N+](=O)[O-] [1-nitropropane],0.000887 ± 2.2e-05 1/K
2,N#Cc1ccccc1 [benzonitrile],0.000754 ± 1.8e-05 1/K
3,O=[N+]([O-])c1ccccc1 [nitrobenzene],0.000725 ± 1.8e-05 1/K
4,CC[N+](=O)[O-] [nitroethane],0.00096 ± 2.4e-05 1/K
5,C[N+](=O)[O-] [nitromethane],0.00101 ± 2.5e-05 1/K
6,CCC#N [propanenitrile],0.00101 ± 2.5e-05 1/K

# Same assay, conditions: 288.15 K; 55000 kPa; Liquid; DSC
row,Compound,isobaric coefficient of expansion
1,CCC[N+](=O)[O-] [1-nitropropane],0.000874 ± 2.1e-05 1/K
2,O=[N+]([O-])c1ccccc1 [nitrobenzene],0.000717 ± 1.8e-05 1/K
3,CC[N+](=O)[O-] [nitroethane],0.000944 ± 2.3e-05 1/K
4,C[N+](=O)[O-] [nitromethane],0.000992 ± 2.4e-05 1/K
5,CCC#N [propanenitrile],0.000992 ± 2.4e-05 1/K

# Same assay, conditions: 298.15 K; 5000 kPa; Liquid; DSC
row,Compound,isobaric coefficient of expansion
1,CCC[N+](=O)[O-] [1-nitropropane],0.00108 ± 2.6e-05 1/K
2,N#Cc1ccccc1 [benzonitrile],0.000849 ± 2.1e-05 1/K
3,O=[N+]([O-])c1ccccc1 [nitrobenzene],0.000823 ± 2e-05 1/K
4,CC[N+](=O)[O-] [nitroethane],0.00115 ± 2.8e-05 1/K
5,C[N+](=O)[O-] [nitromethane],0.00121 ± 3e-05 1/K
6,CCC#N [propanenitrile],0.00128 ± 3.1e-05 1/K

# Same assay, conditions: 298.15 K; 10000 kPa; Liquid; DSC
row,Compound,isobaric coefficient of expansion
1,CCC[N+](=O)[O-] [1-nitropropane],0.00105 ± 2.6e-05 1/K
2,N#Cc1ccccc1 [benzonitrile],0.000832 ± 2e-05 1/K
